We go through two molecules from patent US20230134986A1, “GLUCOSE TRIPTOLIDE CONJUGATES AND USES THEREOF” (The Johns Hopkins University, priority 2020, published 2023).

The test system of one experiment is HEK 293T cells. Description: HEK293T cell proliferation assay ([3H]-thymidine incorporation). Type of experiment: cell-based, human. The note with it: for IC50: Homo sapiens, HEK-293T, 24 h, read-out: IC50 ± SEM. From the text:
(§1) Cells and culture conditions. Primary astrocytes (Lonza, Walkersville, Md.; ABM™ Basal Media with AGM™ SingleQuots™ Supplement Pack), fibroblast (ATCC; Fibroblast Basal Medium (ATCC© PCS-201-030™) with Fibroblast Growth Kit-Serum-free (ATCC© PCS-201-040™)), airway epithelial cell (ATCC; Airway Epithelial Cell Basal Medium (ATCC© PCS-300-030™) with Bronchial Epithelial Cell Growth Kit (ATCC© PCS-300-040™)), renal proximal tubule (ATCC; Renal Epithelial Cell Basal Medium (ATCC© PCS-400-030™) with Renal Epithelial Cell Growth Kit (ATCC© PCS-400-040™)), prostate epithelial cell (Lonza; PrEGM™ BulletKit™) and mammary epithelial cell (Lonza; MEBM™ BulletKit™) were kept in a humidified incubator at 37° C. adjusted to 5% CO2. Prostate (PC3, LNCaP, DU-145), breast (MDA-MB-231, MDA-MB-453, SK-BR-3), head and neck (A253, Detroit 562, SCC-25), melanoma (SK-Mel-3, SK-Mel-1, RPMI-7951), pancreatic (CfPAC-1, BxPC3, SW1990), lung (A549, NCI-H1299, NCI-H1437) and liver (SNU-475, SK-HEP-1, SNU-387) cancer cell lines were obtained from ATCC and cultured in their respective media (prostate cells: RPMI-1640, MDA-MB-231: RPMI-1640, MDA-MB-453: Leibovitz's L-15, SK-BR-3: McCoy's 5a, A253: McCoy's 5a, Detroit 562: EMEM, SCC-25: DMEM, SK-Mel-3: McCoy's 5a, SK-Mel-1: EMEM, RPMI-7951: EMEM), CfPAC-1: IMDM, BxPC3: RPMI-1640, SW1990: Leibovitz's L-15), A549: F-12K, NCI-H1299: RPMI-1640, NCI-H1437: RPMI-1640, SNU-475: RPMI-1640, SK-HEP-1: EMEM, SNU-387: RPMI-1640. All media were supplemented with 10% (vol/vol) filtered fetal bovine serum (FBS, Invitrogen, Carlsbad, Calif.), 1% penicillin/streptomycin (Invitrogen) and maintained in a humidified incubator at 37° C. with 5% CO2 except for MDA-MB-453 and SW1990 grown at 37° C. without CO2 control. Wild type (ATCC) and C342T XPB knock-in cells (named T7115) of Human Embryonic Kidney 293T (HEK293T), HeLa (ATCC) were cultured in DMEM (GIBCO) with 10% (vol/vol) filtered fetal bovine serum (FBS, Invitrogen, Carlsbad, Calif.), 1% penicillin/streptomycin (Invitrogen).
(§2) Proliferation and viability assays. [^3H]-thymidine incorporation. HEK293T cells (10,000 cells/well) were seeded into 96-well plates then cultured in DMEM plus 10% FBS and 1% penicillin/streptomycin at 37° C. with 5% CO2 overnight. Drugs were added at indicated concentrations and incubation was continued for an additional 24 h. For hypoxia, PC3 (5,000 cells/well) were exposed to 1% O2 (Airgas) in a humidified hypoxia chamber (Billups-Rothenberg) in 37° C. for 48 h prior to drug exposure for 48 h. Treated cells were then pulsed using an aliquot of 1 μCi of [^3H]-thymidine (Perkin Elmer) per well for an additional 6 h. Radiolabelled cells were harvested onto a printed Filtermat A glass fiber filter (Perkin Elmer) using a Tomtec Harvester 96 Mach III M. Betaplate Scint (Perkin Elmer) scintillation fluid was added to radiolabelled filters followed by scintillation counting on Microbeta2 LumiJET Microplate Counter (Perkin Elmer).

In the next experiment the test system is Airway Epithelial cell. Description: XTT viability assay, airway epithelial cells. In kind it is cell-based. To be noted: Homo sapiens, Primary normal cells. From the text:
(§3) Cells and culture conditions. Primary astrocytes (Lonza, Walkersville, Md.; ABM™ Basal Media with AGM™ SingleQuots™ Supplement Pack), fibroblast (ATCC; Fibroblast Basal Medium (ATCC© PCS-201-030™) with Fibroblast Growth Kit-Serum-free (ATCC© PCS-201-040™)), airway epithelial cell (ATCC; Airway Epithelial Cell Basal Medium (ATCC© PCS-300-030™) with Bronchial Epithelial Cell Growth Kit (ATCC© PCS-300-040™)), renal proximal tubule (ATCC; Renal Epithelial Cell Basal Medium (ATCC© PCS-400-030™) with Renal Epithelial Cell Growth Kit (ATCC© PCS-400-040™)), prostate epithelial cell (Lonza; PrEGM™ BulletKit™) and mammary epithelial cell (Lonza; MEBM™ BulletKit™) were kept in a humidified incubator at 37° C. adjusted to 5% CO2. […]
(§4) XTT assay. […] Cell viability was measured using the R&D Systemsm TACS XTT Cell Proliferation/Viability Assay (R&D Systems, Minneapolis, Minn.).
(Formazan colour is commonly taken as a measure of viable cells.)

For another experiment, the system named is MDA-MB-453. Description: XTT viability assay, MDA-MB-453. Type of experiment: cell-based. The note with it: Homo sapiens; Breast Cancer, MDA-MB-453, XTT.
From the text: as §3, §4

Another experiment relates to SK-Mel-1. Description: XTT viability assay, SK-Mel-1. Type of experiment: cell-based. The note with it: Homo sapiens; Melanoma, SK-Mel-1, XTT.
From the text: as §3, §4

The next experiment concerns DU-145. Description: XTT viability assay, DU-145. In kind it is cell-based. The note with it: Homo sapiens; Prostate Cancer, DU-145, XTT.
From the text: as §3, §4

Another experiment deals with A253. Description: XTT viability assay, A253. To be noted: Homo sapiens, Head and Neck Cancer. Type of experiment: cell-based.
From the text: as §3, §4

A further experiment has as its system SNU-387. Description: XTT viability assay, SNU-387. In kind it is cell-based. The note with it: Homo sapiens; Liver Cancer, SNU-387, XTT.
From the text: as §3, §4

The next experiment relates to HUVEC. Description: XTT viability assay, HUVEC. Type of experiment: cell-based. To be noted: Homo sapiens, Primary normal cells.
The next experiment relates to CfPAC-1. Description: XTT viability assay, CfPAC-1. In kind it is cell-based. To be noted: Homo sapiens; Pancreatic Cancer, CfPAC-1, XTT.
From the text: as §3, §4

The test system of another experiment is primary human cells. Description: XTT viability assay, panel of primary non-malignant cells (means and ranges). In kind it is cell-based.
From the text: as §1
XTT assay. Five thousand cells/well were plated on flat-bottom, transparent 96-well plate in a full growth media and incubated at appropriate culture conditions. Twenty four hours after seeding, cells were treated with indicated drugs and incubated for 47 hrs. Cell viability was measured using the R&D Systemsm TACS XTT Cell Proliferation/Viability Assay (R&D Systems, Minneapolis, Minn.).

The subject of a further experiment is SCC-25. Description: XTT viability assay, SCC-25. In kind it is cell-based. To be noted: Homo sapiens; Head and Neck Cancer, SCC-25, XTT.
From the text: as §3, §4

The next experiment has as its system PC3 cells. Description: PC3 proliferation under hypoxia or normoxia ([3H]-thymidine incorporation). In kind it is cell-based, human. To be noted: for IC50: Homo sapiens, PC-3, 48 h, 48 h post treatment. As to the method: as §2
In general terms: Uptake of a labelled nucleoside into DNA is a usual measure of proliferation.

The test system of the next experiment is HepG2. Description: HepG2 proliferation under hypoxia ([3H]-thymidine incorporation). Type of experiment: cell-based, human. To be noted: HepG2, 1% O2, 48 h post treatment.
Where [1] appears, read: Non-malignant cells, read-out: mean IC50 by cell type.
Where [2] appears, read: cell viability, panel of normal primary cells, read-out: range of IC50 values for primary cells.

Structures are written as SMILES. Entries after “also recorded” stand apart in the source; their conditions may differ. Where two headings read alike, the source gives them in different places.

For orientation: IC50 means the concentration at which inhibition is half-maximal. With `CC(C)[C@]12O[C@H]1[C@@H]1O[C@]13[C@]1(O[C@H]1C[C@H]1C4=C(CC[C@@]13C)C(=O)OC4)[C@@H]2OC(=O)CCC(=O)O[C@@H]1OC(CO)[C@@H](O)C(O)C1O` (some centres unmarked) [Compound 10], the IC50 was determined as 279 ± 0.611 nM in the experiment on HEK 293T cells; 4120 ± 1390 nM in the experiment on Airway Epithelial cell; 530 ± 200 nM with MDA-MB-453; 1290 nM in the experiment with SK-Mel-1; 400 ± 130 nM in the experiment with DU-145; 710 ± 470 nM in the experiment with A253. Also, the IC50 is 15500 ± 9280 nM in the experiment on SNU-387; 1370 ± 730 nM in the experiment on HUVEC; 510 ± 350 nM in the experiment with CfPAC-1; 4160 ± 930 nM with primary human cells (setting [1]); 1370 to 5600 nM with primary human cells (setting [2]); 1260 ± 990 nM with SCC-25.
`CC(C)[C@]12O[C@H]1[C@@H]1O[C@]13[C@]1(O[C@H]1C[C@H]1C4=C(CC[C@@]13C)C(=O)OC4)[C@@H]2OC(=O)CCCO[C@@H]1OC(CO)[C@@H](O)C(O)C1O` (stereo in doubt) [Compound 1]: the IC50 with HEK 293T cells was found to be 71 nM; in the experiment with Airway Epithelial cell it was 7130 ± 2840 nM; in the experiment with PC3 cells (PC3, hypoxic conditions (1% O2)), 81 nM; in the experiment on PC3 cells (PC3, normoxic conditions (20% O2)), 427 nM; with MDA-MB-453, 530 ± 280 nM; in the experiment on SK-Mel-1, 3440 nM. For the same molecule, the IC50 came out at 440 ± 190 nM in the experiment with DU-145; 540 ± 400 nM with A253; 24400 ± 8900 nM in the experiment on SNU-387; 3980 ± 1150 nM in the experiment on HUVEC; 470 ± 320 nM in the experiment with CfPAC-1; 6800 ± 1670 nM with primary human cells (setting [1]). In addition, the IC50 was 4000 to 10900 nM in the experiment with primary human cells (setting [2]) and 1630 ± 780 nM in the experiment on SCC-25. For the same molecule, the “fold more potent against cancer cells in vitro than compound 10” value with HEK 293T cells (in vitro) came to 4 fold. Moreover, the “fold enhancement of anti-proliferative effect during hypoxia” value in the experiment with PC3 cells (PC3, hypoxia versus normoxia) is given as “five-fold”. In addition, the “effect of hypoxia on anti-proliferative effect” value in the experiment on HepG2 is reported as “resistance; also recorded: remains resistant”.
